Measured values: patent publication US20230167088A1, “1-PYRAZINYLPYRAZOLYL-3-OXYALKYL ACIDS AND THEIR DERIVATIVES, AND THEIR USE FOR CONTROL OF UNDESIRED PLANT GROWTH” (BAYER AKTIENGESELLSCHAFT, priority 2020, published 2023)

Legend:
MATIN [1] = assay: Herbicidal post-emergence action 1b (twin sowing, 1280 g/ha); format: in vivo, Matricaria inodora; conditions: dosage 1280 g/ha, visual rating about 3 weeks after treatment
Method: (§1) [table] b) Seeds of mono- and dicotyledonous weed plants are placed in plastic pots in sandy loam soil (twin sowing with one species each of mono- or dicotyledonous weed plants per pot), covered with soil and cultivated in a greenhouse under controlled growth conditions. 2 to 3 weeks after sowing, the test plants are treated at the one-leaf stage. The compounds of the invention, formulated in the form of wettable powders (WP) or as emulsion concentrates (EC), are applied to the green parts of the plants as aqueous suspension or emulsion with addition of 0.5% additive at a water application rate equivalent to 600 litres per hectare. After the test plants have been kept in the greenhouse under optimum growth conditions for about 3 weeks, the activity of the preparations is rated visually in comparison to untreated controls. For example, 100% activity=the plants have died, 0% activity=like control plants. Tables A16 to A21 below show the effects of selected compounds of the general formula (I) according to Tables 1 and 2 on various harmful plants and at an application rate corresponding to 1280 g/ha, which were obtained by the experimental procedure mentioned above.

POAAN [2] = assay: as above; format: in vivo, Poa annua; conditions: dosage 1280 g/ha, visual rating about 3 weeks after treatment
Method: as §1

MATIN [3] = assay: Herbicidal pre-emergence action 2b (doubly sown, 1280 g/ha); format: in vivo, Matricaria inodora; conditions: doubly sown pots, dosage 1280 g/ha, visual scoring after about 3 weeks
Description: (§2) [table] b) Seeds of mono- and dicotyledonous weed plants are placed in plastic pots in sandy loam soil (doubly sown with one species each of mono- or dicotyledonous weed plants per pot) and covered with soil. The compounds of the invention, formulated in the form of wettable powders (WP) or as emulsion concentrates (EC), are then applied onto the surface of the covering soil as aqueous suspension or emulsion with addition of 0.5% additive at a water application rate equivalent to 600 litres per hectare. After the treatment, the pots are placed in a greenhouse and kept under good growth conditions for the trial plants. After about 3 weeks, the effect of the preparations is scored visually in comparison with untreated controls as percentages. For example, 100% activity=the plants have died, 0% activity=like control plants. Tables B16 to B21 below show the effects of selected compounds of the general formula (I) according to Tables 1 and 2 on various harmful plants and at an application rate corresponding to 1280 g/ha, which were obtained by the experimental procedure mentioned above.

STEME [4] = assay: as above; format: in vivo, Stellaria media; conditions: doubly sown pots, dosage 1280 g/ha, visual scoring after about 3 weeks
Description: as §2

DIGSA = assay: as above; format: in vivo, Digitaria sanguinalis; conditions: doubly sown pots, dosage 1280 g/ha, visual scoring after about 3 weeks
Description: as §2

ECHCG [5] = assay: as above; format: in vivo, Echinochloa crus-galli; conditions: doubly sown pots, dosage 1280 g/ha, visual scoring after about 3 weeks
Description: as §2

POAAN [6] = assay: as above; format: in vivo, Poa annua; conditions: doubly sown pots, dosage 1280 g/ha, visual scoring after about 3 weeks
Description: as §2

AMARE [7] = assay: as above; format: in vivo, Amaranthus retroflexus; conditions: doubly sown pots, dosage 1280 g/ha, visual scoring after about 3 weeks
Description: as §2

AMARE [8] = assay: Herbicidal pre-emergence action 2a (greenhouse pots, visual scoring); format: in vivo, Amaranthus retroflexus; conditions: dosage 320 g/ha, visual scoring after about 3 weeks vs untreated controls
Description: (§3) [table] a) Seeds of monocotyledonous and dicotyledonous weed plants and crop plants are placed in plastic or organic plant pots and covered with soil. The compounds of the invention, formulated in the form of wettable powders (WP) or as emulsion concentrates (EC), are then applied onto the surface of the covering soil as aqueous suspension or emulsion with addition of 0.5% additive at a water application rate of 600 1/ha (converted). After the treatment, the pots are placed in a greenhouse and kept under good growth conditions for the trial plants. After about 3 weeks, the effect of the preparations is scored visually in comparison with untreated controls as percentages. For example, 100% activity=the plants have died, 0% activity=like control plants. Tables B1 to B15 below show the effects of selected compounds of the general formula (I) according to Tables 1 and 2 on various harmful plants and an application rate corresponding to 320 g/ha and/or 80 g/ha, which were obtained by the experimental procedure mentioned above.

MATIN [9] = assay: as above; format: in vivo, Matricaria inodora; conditions: dosage 320 g/ha, visual scoring after about 3 weeks vs untreated controls
Description: as §3

SETVI [10] = assay: as above; format: in vivo, Setaria viridis; conditions: dosage 320 g/ha, visual scoring after about 3 weeks vs untreated controls
Description: as §3

AVEFA [11] = assay: Herbicidal post-emergence action 1a (greenhouse pots, visual rating); format: in vivo, Avena fatua; conditions: Dosage 320 g/ha; rated visually about 3 weeks after treatment; 100% = plants have died, 0% = like control plants
Method: (§4) [table] a) Seeds of monocotyledonous and dicotyledonous weeds and crop plants are placed in sandy loam in plastic or organic plant pots, covered with soil and cultivated in a greenhouse under controlled growth conditions. 2 to 3 weeks after sowing, the test plants are treated at the one-leaf stage. The compounds of the invention, formulated in the form of wettable powders (WP) or as emulsion concentrates (EC), are then sprayed onto the green parts of the plants as aqueous suspension or emulsion with addition of 0.5% additive at a water application rate of 600 1/ha (converted). After the test plants have been kept in the greenhouse under optimum growth conditions for about 3 weeks, the activity of the preparations is rated visually in comparison to untreated controls. For example, 100% activity=the plants have died, 0% activity=like control plants. Tables A1 to A15 below show the effects of selected compounds of the general formula (I) according to Tables 1 and 2 on various harmful plants and an application rate corresponding to 320 g/ha and/or 80 g/ha, which were obtained by the experimental procedure mentioned above.

AVEFA [12] = assay: Herbicidal pre-emergence action 2a (greenhouse pots, visual scoring); format: in vivo, Avena fatua; conditions: dosage 320 g/ha, visual scoring after about 3 weeks
Description: as §3

ECHCG [13] = assay: Herbicidal post-emergence action 1a (greenhouse pots, visual rating); format: in vivo, Echinochloa crus-galli; conditions: Dosage 320 g/ha; rated visually about 3 weeks after treatment; 100% = plants have died, 0% = like control plants
Method: as §4

ALOMY [14] = assay: Herbicidal pre-emergence action 2a (greenhouse pots, visual scoring); format: in vivo, Alopecurus myosuroides; conditions: dosage 320 g/ha, visual scoring after about 3 weeks
Description: as §3

ALOMY [15] = assay: Herbicidal post-emergence action 1a (greenhouse pots, visual rating); format: in vivo, Alopecurus myosuroides; conditions: rated visually about 3 weeks after treatment, 100% = plants have died, 0% = like control plants
Method: as §4

POLCO [16] = assay: as above; format: in vivo, Polygonum convolvulus; conditions: dosage 320 g/ha, visual rating about 3 weeks after treatment
Method: as §4

LOLRI = assay: Herbicidal pre-emergence action 2a (greenhouse pots, visual scoring); format: in vivo, Lolium rigidum; conditions: dosage 320 g/ha, visual scoring after about 3 weeks vs untreated controls
Description: as §3

VERPE = assay: as above; format: in vivo, Veronica persica; conditions: dosage 320 g/ha, visual scoring after about 3 weeks vs untreated controls
Description: as §3

POLCO [17] = assay: as above; format: in vivo, Polygonum convolvulus; conditions: dosage 320 g/ha, visual scoring after about 3 weeks vs untreated controls
Description: as §3

AMARE [18] = assay: Herbicidal post-emergence action 1a (greenhouse pots, visual rating); format: in vivo, Amaranthus retroflexus; conditions: dosage 320 g/ha, visual rating about 3 weeks after treatment
Method: as §4

SETVI [19] = assay: as above; format: in vivo, Setaria viridis; conditions: rated visually about 3 weeks after treatment, 100% = plants have died, 0% = like control plants
Method: as §4

STEME [20] = assay: Herbicidal post-emergence action 1b (twin sowing, 1280 g/ha); format: in vivo, Stellaria media; conditions: dosage 1280 g/ha, visual rating about 3 weeks after treatment
Method: as §1

VIOTR = assay: Herbicidal pre-emergence action 2a (greenhouse pots, visual scoring); format: in vivo, Viola tricolor; conditions: dosage 320 g/ha, visual scoring after about 3 weeks vs untreated controls
Description: as §3

| SMILES | Post-emergence action at 1280 g/ha against MATIN in % (MATIN [1]) [%] | Post-emergence action at 1280 g/ha against POAAN in % (POAAN [2]) [%] | Pre-emergence action at 1280 g/ha against MATIN in % (MATIN [3]) [%] | Pre-emergence action at 1280 g/ha against STEME in % (STEME [4]) [%] | Pre-emergence action at 1280 g/ha against DIGSA in % (DIGSA) [%] | Pre-emergence action at 1280 g/ha against POAAN in % (POAAN [6]) [%] | Pre-emergence action at 1280 g/ha against AMARE in % (AMARE [7]) [%] | Pre-emergence action against AMARE in % (AMARE [8]) [%] | Pre-emergence action against MATIN in % (MATIN [9]) [%] | other results |
| --- | --- | --- | --- | --- | --- | --- | --- | --- | --- | --- |
| O=C(O)COc1nn(-c2cnccn2)c(-c2ccc(F)c(F)c2)c1Br [Example I-41] | 90 | 100 | 100 | 100 | 100 | 100 | 100 | – | – | Pre-emergence action at 1280 g/ha against ECHCG in % (ECHCG [5]): 100% |
| CCOC(=O)COc1nn(-c2nccnc2F)c(-c2ccc(F)nc2)c1Br [Example I-76] | – | – | – | – | – | – | – | 90 | 90 | – |
| COC(=O)CNC(=O)[C@@H](C)Oc1nn(-c2cnccn2)c(-c2ccc(F)nc2)c1Br [II-03] | – | – | – | – | – | – | – | 100 | – | Pre-emergence action against SETVI in % (SETVI [10]): 100%; Post-emergence action against AVEFA in % (AVEFA [11]): 90%; Pre-emergence action against AVEFA in % (AVEFA [12]): 100%; Post-emergence action against ECHCG in % (ECHCG [13]): 80%; Pre-emergence action against ALOMY in % (ALOMY [14]): 100%; Post-emergence action against ALOMY in % (ALOMY [15]; Dosage 80 g/ha): 80%; Post-emergence action against ALOMY in % (ALOMY [15]; Dosage 320 g/ha): 90%; Post-emergence action against POLCO in % (POLCO [16]): 80%; Pre-emergence action against LOLRI in % (LOLRI): 100%; Pre-emergence action against VERPE in % (VERPE): 100%; Pre-emergence action against POLCO in % (POLCO [17]): 90%; Post-emergence action against AMARE in % (AMARE [18]): 90%; Post-emergence action against SETVI in % (SETVI [19]; Dosage 80 g/ha): 90%; Post-emergence action against SETVI in % (SETVI [19]; Dosage 320 g/ha): 90% |
| CCOC(=O)COc1nn(-c2cnccn2)c(-c2ccc(F)nc2)c1[N+](=O)[O-] [Example I-50] | 90 | 90 | 90 | 90 | 100 | 100 | 100 | – | – | Post-emergence action at 1280 g/ha against STEME in % (STEME [20]): 90% |
| COC(=O)COc1nn(-c2nccnc2F)c(-c2ccc(F)nc2)c1Br [Example I-77] | – | – | – | – | – | – | – | 80 | 80 | Pre-emergence action against VIOTR in % (VIOTR): 80% |
